Assay results published in US20260200982A1, “HER RECEPTOR DERIVED PEPTIDES AND METHODS OF USE THEREOF” (Ramot at Tel-Aviv University Ltd., priority 2022, published 2026).
Bridges are numbered along the chain shown (N, C = ends). Primed or numbered codes have the meaning given here. Where no end group is shown, it is not given here. [ ]: non-standard residue; d: D form. The star is where a group is joined. FITC′ = fluorescein isothiocyanate; Myristoyl = CCCCCCCCCCCCCC(=O)*; S5 = C=CCCC[C@](C)(N)C(=O)O

Key:
Type in all cases: cell-based, human
[1] = system: MCF7 breast cancer cells; conditions: 72 hours; for MCF7 cell viability: 10 μM peptide, FIGS. 6A-B
Description: (§1) Cell lines—Human breast cancer cell lines SKBR3 [Peles E et al. EMBO J. (1993) 12(3):961-71] and MCF7 [Faigenbloom L et al., Mol Syst Biol. (2015) 11(12):845] and human glioblastoma U87 [Goldberg L et al. Cancer Res. (2006) 66(24):11709-17] cell line, as well as Rat-1 fibroblast cells and H-Ras-transformed Rat-1 cells (EJ cells) [Marom M et al. J Biol Chem. (1995) 270(38):22263-70] and human Panc-1 and MIA PaCa-2 pancreatic cell lines (Rak R et al. Oncoscience. 2014 1(1):39-48; Weisz B et al. Oncogene (1999) 18, 2579±2588) were all grown in Dulbecco's modified Eagle's medium (DMEM; Biological Industries, Beithaemek, Israel). Human colorectal cancer cell lines DLD-1 (ATTC Cat No. CCL-221), HCT-116 (ATTC Cat No. CCL-247) and LNCaP prostate cancer cells were grown in Roswell Park Memorial Institute 1640 (RPMI 1640) medium and McCoy's 5A media, respectively (Sigma-Aldrich). All media were supplemented with antibiotics and 10% heat-inactivated fetal bovine serum (FBS; Gibco). Human breast cell line MCF10A [Bott A et al. Oncotarget. (2017) 8(27):43897-43914] was grown in Dulbeco's Modified Eagle's Medium/Nutrient Mixture F-12 HAM medium (DMEM F-12 HAM; Sigma-Aldrich), supplemented with antibiotics, 5% inactivated horse serum (HS; Invitrogen), 2 mM L-glutamine (Biological Industries, Beithaemek, Israel), 0.1 μg/ml cholera toxin (Sigma-Aldrich), 0.5 μg/ml hydrocortisone (Sigma-Aldrich), 10 μg/ml insulin (Biological Industries, Beithaemek, Israel) and 2 ng/ml EGF (R&D Systems). Cells were incubated at 37° C. in 5% CO2 in air, and the medium was changed every 3-4 days. Cells were passaged in trypsin/disodium ethylenediaminetetraacetic acid (Biological Industries, Beithaemek, Israel) when confluency reached 70%. One day prior to treatment the cells were plated at ~50% confluency in a medium supplemented with 10% FBS or 5% HS, accordingly.
(§2) Methylene blue viability assay—Cells were plated in 96-wells plates at cell densities of 1.5×10^3 (EJ, DLD-1), 3×10^3 (Rat-1, HCT-116, U87), 5×10^3 (SKBR3, MCF7) and 6×10^3 (MCF10A) cells/well. […] Cell number determination was performed as described previously. IC-50 values were calculated using a non-linear regression model (logarithmic inhibitor vs. normalized response-variable slope) with the GraphPad Prism 6 software.

[2] = system: non-cancerous (MCF10A) breast cell line; experiment: Methylene blue viability assay, MCF10A; conditions: 72 hours, 10 μM peptide; FIGS. 6A-B
Description: as §1
Methylene blue viability assay—Cells were plated in 96-wells plates at cell densities of 1.5×10^3 (EJ, DLD-1), 3×10^3 (Rat-1, HCT-116, U87), 5×10^3 (SKBR3, MCF7) and 6×10^3 (MCF10A) cells/well. On the following day, cells were treated as indicated, and grown for 72 hours. Cell number determination was performed as described previously. IC-50 values were calculated using a non-linear regression model (logarithmic inhibitor vs. normalized response-variable slope) with the GraphPad Prism 6 software.

[3] = system: SKBR3 breast cancer cells; conditions: 80 μM peptide for 72 hours; FIG. 4A
Description: as §1, §2

Substance	MCF7 cell viability [1]	viability of non-cancerous MCF10 breast cells [2]	effect of FITC-conjugation on cell viability activity compared to myr-NLS ([1]; MCF7, FIG. 4E)	viability of SKBR3 breast cancer cells [3]
Myr-RRRHIVR(S5)RTL(S5)RLL (Myristoyl-RRRHIVR[S5]RTL[S5]RLL; staple 8-12; not fully specified; printed as Myr-RRRHIVR(S5)RTL(S5)RLL) [mN8-12]	decreased viability	decreased viability		
Myr-RRRHIVRK(FITC)RTLRRLL (Myristoyl-RRRHIVRK(FITC′)RTLRRLL) [myr-NLS-FITC]			did not affect myr-NLS activity	
Myr-RRRHIVRKRT(S5)RRL(S5) (Myristoyl-RRRHIVRKRT[S5]RRL[S5]; staple 11-15) [mN11-15]	decreased MCF7 cell viability	had no effect		
RRRRRRRRHIVRKRTLRRLL (R-NLS peptide)				significantly reduced viability
